These are literature values, as cited in US20160069160A1, “TREATMENT OF MICROBIAL-INFLUENCED CORROSION” (TRICAN WELL SERVICE LTD., priority 2014, published 2016).

For this data set, the system named is microbes.

As for `O=CCCCC=O` [glutaraldehyde], the “efficacy at low pH” value (below pH 5) is listed as “significantly reduced”. Also, the “concentration required to be effective at pH 7 relative to pH 9” value (pH 7 vs pH 9) was 4 to 6 times higher.
With “tetrakis(hydroxymethyl)phosphonium sulfate [THPS]”, the “effect of pH on microbial control” value is listed as “unaffected by pH”.
